pKi: −log10 of the molar value. Structures can show the parent of a compound that is named as a salt.
Biological target: T1, human MCH1R receptor (Homo sapiens, UniProt Q99705)
T1 construct: host or cells: CHO-K1
Test: Binding assay: [125I]-MCH displacement by SPA on CHO-K1 hMCHR1 membranes
Details: calculated from IC50 using the Cheng Prushoff equation; 0.2 nM [125I]-MCH; CHO-K1 hMCHRI membranes
Procedure: The compounds according to the invention were evaluated for their binding to the human MCH1R receptor by the following method:
Compounds. MCH peptide was purchased from Phoenix pharmaceuticals. (Phe^13, [^125I]Tyr^19 Melanine-Concentrating Hormone (human, mouse, rat) ([^125I]-MCH) was obtained from NEN life Science Products. Inc. Boston, Mass. Wheat germ agglutinine SPA beads (RPNQ 0001) were obtained from Amersham-Pharmacia Biotech. All other reagents used are of highest purity from different resources available. Protein Kits, Micro BCA™ Protein Assay Reagent Kit (Cat No. 23235) were purchased from Piece, Rockford, Ill., USA. […]
The radio labeled [^125I]-MCH was diluted with cold MCH in ratio 1:3. […] The results were calculated using Excel program and the curves were drawn using a program GraphPad Prism.
For screening of the substances the amount of the beads used was 0.25 mg/well and the amount of the membrane protein was 4 μg/well. […] The samples were counted using Microbeta counter (Wallac Trilux 1450 Micro beta counter, Wallac, Finland) for 2 minutes and the results were calculated by using the computer program Activity Base.
The Ki value is calculated from IC50 using the Cheng Prushoff equation: Ki=IC50(1+[S]/Km) [Cheng, Y. C.; Prushoff, W. H. Biochem. Pharmacol. 1973, 22, 3099-3108].

T1 sequence (Q99705 whole entry): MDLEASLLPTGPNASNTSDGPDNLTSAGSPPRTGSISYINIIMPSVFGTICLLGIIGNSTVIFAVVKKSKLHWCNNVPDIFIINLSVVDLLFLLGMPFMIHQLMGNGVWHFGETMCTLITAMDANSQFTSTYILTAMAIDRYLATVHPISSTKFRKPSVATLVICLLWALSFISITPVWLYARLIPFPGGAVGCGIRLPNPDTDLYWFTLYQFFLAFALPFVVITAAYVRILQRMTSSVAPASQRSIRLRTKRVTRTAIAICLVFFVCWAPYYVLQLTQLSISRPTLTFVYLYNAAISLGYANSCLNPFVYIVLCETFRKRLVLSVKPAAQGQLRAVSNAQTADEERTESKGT

Row | pKi | SMILES
1 | 6.54 | COc1ccc([C@@]23CC[C@@H](NC(=O)c4ccc(C(F)(F)F)cc4F)C[C@@H]2CN(C)C3)cc1OC (relative stereo) [Example 44, N-[(3aS*,5R*,7aR*)-7a-(3,4-Dimethoxyphenyl)-2-methyloctahydro-1H-isoindol-5-yl]-2-fluoro-4-(trifluoromethyl)benzamide trifluoroacetate]
2 | 7.13 | COc1ccc([C@@]23CC[C@@H](NC(=O)Nc4cc(C)cc(C)c4)C[C@@H]2CN(C)C3)cc1OC (relative stereo) [Example 48, N-[(3 aS*,5R*,7aR*)-7a-(3,4-Dimethoxyphenyl)-2-methyloctahydro-1H-isoindol-5-yl]-N′-(3,5-dimethylphenyl)urea trifluoroacetate]
